In publication PMC11899342, “Novel Triazeneindole Antibiotics: Synthesis and Hit-to-Lead Optimization” (International Journal of Molecular Sciences, 2025):

Test system: MRSA clinical isolates
Assay: Antibiotic susceptibility profile of MRSA clinical isolates (EUCAST breakpoints)
Type: cell-based, Staphylococcus aureus
Text: Clinical MRSA isolates with multidrug resistance were obtained from the collection of the Research Institute of Antimicrobial Chemotherapy, Smolensk State Medical Academy.

SMILES: CC(=O)O[C@H]1C[C@@]2(C)[C@@H](C[C@@H](O)[C@H]3[C@@]4(C)CC[C@@H](O)[C@@H](C)[C@@H]4CC[C@@]32C)/C1=C(\CCC=C(C)C)C(=O)O [Fusidic acid]
- Drug sensibility profile (MRSA strain 1): S
- Drug sensibility profile (MRSA strain 2): S
- Drug sensibility profile (MRSA strain 3): S
- Drug sensibility profile (MRSA strain 4): S
- Drug sensibility profile (MRSA strain 5): S
- Drug sensibility profile (MRSA strain 6): S
- Drug sensibility profile (MRSA strain 7): S
- Drug sensibility profile (MRSA strain 8): S
- Drug sensibility profile (MRSA strain 9): S
- Drug sensibility profile (MRSA strain 10): S
- Drug sensibility profile (MRSA strain 12): S
- Drug sensibility profile (MRSA strain 13): S
- Drug sensibility profile (MRSA strain 14): S
- Drug sensibility profile (MRSA strain 15): S
- Drug sensibility profile (MRSA strain 16): S
- Drug sensibility profile (MRSA strain 17): R
- Drug sensibility profile (MRSA strain 18): S
- Drug sensibility profile (MRSA strain 21): S
- Drug sensibility profile (MRSA strain 23): S
- Drug sensibility profile (MRSA strain 24): S
- Drug sensibility profile (MRSA strain 25): S
- Drug sensibility profile (MRSA strain 26): S
- Drug sensibility profile (MRSA strain 27): S
- Drug sensibility profile (MRSA strain 28): S
- Drug sensibility profile (MRSA strain 29): S
- Drug sensibility profile (MRSA strain 30): S
- Drug sensibility profile (MRSA strain 31): S
- Drug sensibility profile (MRSA strain 34): S
- Drug sensibility profile (MRSA strain 35): S
- Drug sensibility profile (MRSA strain 36): S
- Drug sensibility profile (MRSA strain 40): S
- Drug sensibility profile (MRSA strain 41): S
- Drug sensibility profile (MRSA strain 42): S
- Drug sensibility profile (MRSA strain 43): S
- Drug sensibility profile (MRSA strain 44): S
- Drug sensibility profile (MRSA strain 45): S
- Drug sensibility profile (MRSA strain 46): S
- Drug sensibility profile (MRSA strain 48): S
- Drug sensibility profile (MRSA strain 49): S
- Drug sensibility profile (MRSA strain 50): S
- Drug sensibility profile (MRSA strain 51): S

SMILES: CNC(C)C1CCC(N)C(OC2C(N)CC(N)C(OC3OCC(C)(O)C(NC)C3O)C2O)O1 (stereo not drawn) [GEN, gentamicin]
- Drug sensibility profile (MRSA strain 1): S
- Drug sensibility profile (MRSA strain 2): R
- Drug sensibility profile (MRSA strain 3): R
- Drug sensibility profile (MRSA strain 4): R
- Drug sensibility profile (MRSA strain 5): R
- Drug sensibility profile (MRSA strain 6): S
- Drug sensibility profile (MRSA strain 7): R
- Drug sensibility profile (MRSA strain 8): R
- Drug sensibility profile (MRSA strain 9): R
- Drug sensibility profile (MRSA strain 10): S
- Drug sensibility profile (MRSA strain 12): S
- Drug sensibility profile (MRSA strain 13): R
- Drug sensibility profile (MRSA strain 14): R
- Drug sensibility profile (MRSA strain 15): S
- Drug sensibility profile (MRSA strain 16): R
- Drug sensibility profile (MRSA strain 17): R
- Drug sensibility profile (MRSA strain 18): R
- Drug sensibility profile (MRSA strain 21): S
- Drug sensibility profile (MRSA strain 23): R
- Drug sensibility profile (MRSA strain 24): R
- Drug sensibility profile (MRSA strain 25): R
- Drug sensibility profile (MRSA strain 26): S S S S S S S
- Drug sensibility profile (MRSA strain 27): R
- Drug sensibility profile (MRSA strain 28): R
- Drug sensibility profile (MRSA strain 29): S
- Drug sensibility profile (MRSA strain 30): S
- Drug sensibility profile (MRSA strain 31): R
- Drug sensibility profile (MRSA strain 34): R
- Drug sensibility profile (MRSA strain 35): R
- Drug sensibility profile (MRSA strain 36): S S S S S S S
- Drug sensibility profile (MRSA strain 40): R
- Drug sensibility profile (MRSA strain 41): R
- Drug sensibility profile (MRSA strain 42): R
- Drug sensibility profile (MRSA strain 43): R
- Drug sensibility profile (MRSA strain 44): R
- Drug sensibility profile (MRSA strain 45): R
- Drug sensibility profile (MRSA strain 46): S
- Drug sensibility profile (MRSA strain 48): R
- Drug sensibility profile (MRSA strain 49): S
- Drug sensibility profile (MRSA strain 50): R
- Drug sensibility profile (MRSA strain 51): R

SMILES: C/C(=C\C(=O)OCCCCCCCCC(=O)O)C[C@@H]1OC[C@H](C[C@@H]2O[C@H]2[C@@H](C)[C@H](C)O)[C@@H](O)[C@H]1O [Mupirocin]
- Drug sensibility profile (MRSA strain 1): S
- Drug sensibility profile (MRSA strain 2): S
- Drug sensibility profile (MRSA strain 3): S
- Drug sensibility profile (MRSA strain 4): S
- Drug sensibility profile (MRSA strain 5): S
- Drug sensibility profile (MRSA strain 6): S
- Drug sensibility profile (MRSA strain 7): S
- Drug sensibility profile (MRSA strain 8): S
- Drug sensibility profile (MRSA strain 9): S
- Drug sensibility profile (MRSA strain 10): S
- Drug sensibility profile (MRSA strain 12): S
- Drug sensibility profile (MRSA strain 13): S
- Drug sensibility profile (MRSA strain 14): S
- Drug sensibility profile (MRSA strain 15): S
- Drug sensibility profile (MRSA strain 16): S
- Drug sensibility profile (MRSA strain 17): S
- Drug sensibility profile (MRSA strain 18): S
- Drug sensibility profile (MRSA strain 21): S
- Drug sensibility profile (MRSA strain 23): S
- Drug sensibility profile (MRSA strain 24): S
- Drug sensibility profile (MRSA strain 25): S
- Drug sensibility profile (MRSA strain 26): S
- Drug sensibility profile (MRSA strain 27): S
- Drug sensibility profile (MRSA strain 28): S
- Drug sensibility profile (MRSA strain 29): S
- Drug sensibility profile (MRSA strain 30): S
- Drug sensibility profile (MRSA strain 31): S
- Drug sensibility profile (MRSA strain 34): S
- Drug sensibility profile (MRSA strain 35): S
- Drug sensibility profile (MRSA strain 36): S
- Drug sensibility profile (MRSA strain 40): S
- Drug sensibility profile (MRSA strain 41): S
- Drug sensibility profile (MRSA strain 42): S
- Drug sensibility profile (MRSA strain 43): S
- Drug sensibility profile (MRSA strain 44): S
- Drug sensibility profile (MRSA strain 45): S
- Drug sensibility profile (MRSA strain 46): S
- Drug sensibility profile (MRSA strain 48): S
- Drug sensibility profile (MRSA strain 49): S
- Drug sensibility profile (MRSA strain 50): I
- Drug sensibility profile (MRSA strain 51): S
